Data taken from publication PMC4168215, “Perampanel Inhibition of AMPA Receptor Currents in Cultured Hippocampal Neurons” (PLoS ONE, 2014).
Several values for one entry are separate records, joined by “and”; a condition that tells them apart may be missing. Identical values can stand only once. Like-named read-outs stand apart in the source and are kept apart here.

Columns and labels:
AMPA receptors = conditions: rat forebrain membranes; earlier radioligand binding studies; cited from earlier work
AMPA receptor [1] = conditions: cited from earlier work
AMPA receptor [2] = assay: Whole-cell voltage-clamp recording of kainate-evoked (AMPA receptor) currents in cultured hippocampal neurons; type: cell-based, rat; conditions: for percent inhibition of kainate-evoked current: sample current
Experimental: (§1) Primary hippocampal neuronal cultures were prepared as previously described. In brief, timed pregnant rats Sprague-Dawley rats (Charles River Laboratories International, Wilmington, MA, USA) were anesthetized with isoflurane. E18 embryos were obtained and the hippocampi were dissected and treated in Hank’s balanced salt solution (HBSS; Invitrogen, Carlsbad, CA, USA) with trypsin (0.03%, Sigma-Aldrich, St. Louis, MO) for 20 min at 37°C. After inactivation of trypsin with neuronal medium (Neurobasal medium; Invitrogen, Life Technologies, Grand Island, NY, USA) supplemented with NS21, 0.5 mM glutamine, 10 mM HEPES) plus 5% horse serum (HS; Invitrogen), the tissue was washed twice with HBSS, and triturated with a fire-polished Pasteur pipette. After non-dissociated pieces of tissue settled, cells in the supernatant were collected by centrifugation (1100 rpm at 200×g for 3.5 min), re-suspended in neuronal medium plus 5% horse serum, counted, and plated on coverslips (Warner Instruments, Hamden, CT, USA) coated with 0.1% (w/v) poly-L-lysine (Peptides International, Louisville, KY, USA). The cell density was 3×10^4 cm^−2 in plating medium. After 4 h, the medium was replaced with serum-free neuronal medium. Cells were grown in a humidified environment of 95% air/5% CO2 at 37°C. One third of medium was changed after 5 days in vitro (DIV) and weekly thereafter.
(§2) Whole-cell voltage clamp experiments were performed 7–25 days after plating. […]. The pipette solution contained 145 CsCl, 0.1 mM CaCl2, 2 mM MgCl2, 1 mM EGTA, and 5 mM HEPES. For NMDA-mediated currents, recordings were made in a bath solution containing 135 mM NaCl, 5 mM KCl, 0.2 mM CaCl2, 10 mM HEPES, 1 µM TTX, 10 µM bicuculline, 1 µM strychnine, 10 µM NBQX, 3 µM glycine. The pipette solution contained 145 CsCl, 0.1 mM CaCl2, 1 mM EGTA, and 5 mM HEPES.
(§3) Recordings were made with an Axopatch 200B patch-clamp amplifier (Axon Instruments, Foster City, CA, USA). Whole-cell currents were filtered at 2 kHz and digitized at 10 kHz. All neurons were voltage-clamped at −60 mV. The following drugs dissolved in bath solution were applied using a fast perfusion system (VC^3-8XP, ALA Scientific Instrument, NY, USA): kainate (3, 10, 100 µM), AMPA (10, 30, 100 µM), NMDA (10, 100 µM), and perampanel (0.01–30 µM). All were from Sigma-Aldrich except perampanel, which was from Eisai Inc. Solution reservoirs contained the drugs separately or the combination of an agonist (kainate, AMPA or NMDA) plus perampanel. Each solution reservoir was connected to a pinch valve of the 8-channel VC^3-8XP perfusion system, which fed solution to an 8-to-1 mini-manifold (MP-8, Warner Instruments, Hamden, CT) that has a dead-volume of 3.5 µl when switching between solutions. Only one perfusion line was open at a time. The opening speed was 15–20 ms. The command for switching among perfusion lines was generated by the pClamp software and delivered to the control box of the perfusion system via a TTL connection.

AMPA receptor [3] = biological target: AMPA receptor; parameters: method as in PMID 21635236; conditions: cultured rat cortical neurons; read-out: IC50, inhibition of AMPA-induced Ca2+ influx; cited from earlier work
AMPA receptor [4] = assay: Whole-cell voltage-clamp recording of AMPA-evoked currents in cultured hippocampal neurons; type: cell-based, rat
Experimental: as §1, §2, §3

NMDA receptor [5] = assay: Whole-cell voltage-clamp recording of NMDA-evoked currents in cultured hippocampal neurons; type: cell-based, rat
Experimental: as §1, §2
Recordings were made with an Axopatch 200B patch-clamp amplifier (Axon Instruments, Foster City, CA, USA). Whole-cell currents were filtered at 2 kHz and digitized at 10 kHz. All neurons were voltage-clamped at −60 mV. […]

kainate receptor = conditions: CA1 area, rat hippocampal slices; cited from earlier work
NMDA receptor [6] = conditions: CA1 area, rat hippocampal slices; cited from earlier work
NMDA receptor [7] = conditions: 30 µM; studies to date; cited from earlier work
AMPA receptor [8] = conditions: CA1 area, rat hippocampal slices; read-out: IC50, inhibition of AMPA receptor component of the field response; cited from earlier work
[9] = 1 µM perampanel, 10, 30 and 100 µM AMPA
[10] = 3 µM perampanel and 100 µM AMPA applied simultaneously
[11] = 30 µM perampanel preapplied 5 s then coapplied, 10 and 100 µM NMDA

CCN(CC)Cc1cccc(/C=C/c2nc3ccc(F)cc3c(=O)n2-c2ccccc2Cl)n1 [CP-465,022]
displacement of [3H]perampanel binding (AMPA receptors): displaced

CC1=NN=C(c2ccc(N)cc2)c2cc3c(cc2C1)OCO3 [GYKI 52466, 1-(4-amino-phenyl)-4-methyl-7,8-methyl-endioxyl-5H-2,3-benzodiaze pine]
displacement of [3H]perampanel binding (AMPA receptors): displaced
inhibition of steady AMPA receptor current (AMPA receptor [1]; 30 µM): ~50%
time in which block occurs (AMPA receptor [1]; 30 µM): several hundred milliseconds
association rate (AMPA receptor [1]): 160000 M⁻¹ s⁻¹
dissociation rate (AMPA receptor [1]): 3.2 s⁻¹

N#Cc1ccccc1-c1cc(-c2ccccn2)cn(-c2ccccc2)c1=O [Perampanel, 2-(2-oxo-1-phenyl-5-pyridin-2-yl-1,2-dihydropyridin-3-yl)benzonitrile]
percent inhibition of kainate-evoked current (AMPA receptor [2]; 0.1 µM perampanel, 100 µM kainate): 20%
percent inhibition of kainate-evoked current (AMPA receptor [2]; 0.3 µM perampanel, 100 µM kainate): 41%
percent inhibition of kainate-evoked current (AMPA receptor [2]; 1 µM perampanel, 100 µM kainate): 55%
IC50 (AMPA receptor [2]; 3 µM kainate, holding −60 mV, perampanel preapplied 5 s then coapplied, read-out: Kainate Response IC50): 580 nM
time constant (τ) of development of block (AMPA receptor [2]; 3 µM perampanel started 5 s after onset of 100 µM kainate): 1.2 ± 0.1 s
reduction of the kainate-induced current (AMPA receptor [2]; 3 µM perampanel started 5 s before kainate (100 µM), one neuron): ~73%
time constant (τ) of recovery from block (AMPA receptor [2]; 3 µM perampanel, 100 µM kainate, after termination of perampanel): 3.3 ± 1.5 s
percent inhibition of kainate-evoked current (AMPA receptor [2]; 3 µM perampanel, 100 µM kainate): 80%
IC50 (AMPA receptor [2]; 10 µM kainate, holding −60 mV, perampanel preapplied 5 s then coapplied, read-out: Kainate Response IC50): 510 nM
IC50 (AMPA receptor [2]; 100 µM kainate, holding −60 mV, perampanel preapplied 5 s then coapplied, read-out: Kainate Response IC50): 580 nM
IC50 (AMPA receptor [2]; overall value, similar at all kainate concentrations (3–100 µM), read-out: IC50, block of non-desensitizing kainate-evoked currents): 560 nM
IC50 (AMPA receptor [3]): 93 nM
effect on decay time constant of AMPA-evoked currents (AMPA receptor [4]; [9]): did not alter
effect on peak to late ratio of AMPA-evoked currents (AMPA receptor [4]; [9]): not statistically different from control
effect on rise time constant of AMPA-evoked currents (AMPA receptor [4]; [9]): did not alter
reduction of peak AMPA response (AMPA receptor [4]; [10]): 17%
time to full block (AMPA receptor [4]; [10]): ≤ 5 s
reduction in the peak and late AMPA responses (AMPA receptor [4]; 3 µM perampanel started 5 s before 100 µM AMPA): ~60%
time constant (τ) of inhibition of AMPA receptor currents (AMPA receptor [4]; 3 µM perampanel, currents evoked by AMPA and kainate): ~1 s
time over which block develops without preexposure (AMPA receptor [4]; 3 µM perampanel, kainate- and AMPA-evoked currents (Fig. 3)): ~3 s
IC50 (AMPA receptor [4]; 10 µM AMPA, holding −60 mV, perampanel preapplied 5 s then coapplied, read-out: AMPA Response IC50, Peak Current): 400 nM
IC50 (AMPA receptor [4]; 10 µM AMPA, late current at end of 5 s AMPA perfusion, read-out: AMPA Response IC50, Late Current): 400 nM
IC50 (AMPA receptor [4]; 30 µM AMPA, holding −60 mV, perampanel preapplied 5 s then coapplied, read-out: AMPA Response IC50, Peak Current): 800 nM
IC50 (AMPA receptor [4]; 30 µM AMPA, late current at end of 5 s AMPA perfusion, read-out: AMPA Response IC50, Late Current): 900 nM
Kd (AMPA receptor [4]; 100 µM AMPA-evoked currents, read-out: kinetically determined binding affinity (KD = k–1/k1)): 3900 nM
mean off rate determined from the τoff values (AMPA receptor [4]; 100 µM AMPA, 1, 3 and 10 µM perampanel): 0.68 s⁻¹
unbinding rate constant k–1 (rate of unblock, dissociation rate) (AMPA receptor [4]; 100 µM AMPA, 1, 3 and 10 µM perampanel, intercept of kapp vs concentration): 0.58 s⁻¹
binding rate constant k1 (rate of block, association rate) (AMPA receptor [4]; 100 µM AMPA, 1, 3 and 10 µM perampanel, slope of kapp vs concentration): 1.5×10^5 M^−1 s^−1 and 1.51±0.10×10^5 M^−1 s^−1
IC50 (AMPA receptor [4]; 100 µM AMPA, holding −60 mV, perampanel preapplied 5 s then coapplied, read-out: AMPA Response IC50, Peak Current): 900 nM
IC50 (AMPA receptor [4]; 100 µM AMPA, late current at end of 5 s AMPA perfusion, read-out: AMPA Response IC50, Late Current): 1200 nM
effect on mean amplitude of late NMDA-evoked current (NMDA receptor [5]; [11]): failed to affect
effect on mean amplitude of peak NMDA-evoked current (NMDA receptor [5]; [11]): failed to affect
effect on NMDA receptor currents (NMDA receptor [5]; summary statement): did not affect
effect on kainate receptor component of the field response (kainate receptor): without affecting
effect on NMDA receptor component of the field response (NMDA receptor [6]): without affecting
inhibition of NMDA responses (NMDA receptor [7]): only minimally inhibits
IC50 (AMPA receptor [8]): 230 nM
